From patent US20240391889A1, “ANTIMICROBIAL COMPOUNDS AND THE METHODS OF USE” (priority 2021, published 2024)
Values after ≈ are worked out from the molar mass of the structure shown. Like-named read-outs stand apart in the source and are kept apart here. Numbered stars: 1 amine (or outer) side, 2 acyl side, 3 side chain; on linkers, the order of the positions; unused ones are H or OH. Square brackets hold non-standard residues; d marks the D form. Peptide text beside a SMILES is read from it. N(tridecyl)Gly = CCCCCCCCCCCCCNCC(=O)O; X1 = CC(c1ccccc1)N(CC(=O)[*:2])[*:1]; NFurfurylGly = O=C(O)CNCc1ccco1; Gly(N(CH2)3NH2) = NCCCNCC(=O)O; Nphe = O=C(O)CNCc1ccccc1; NPrGly = CCCNCC(=O)O; Nlys = NCCCCNCC(=O)O

How the values were obtained:
[1] = test system: C. albicans biofilm; test: Fungal biofilm minimum inhibitory concentration assay (PrestoBlue); assay type: cell-based, Candida albicans
Method: The biofilm minimum inhibitory concentration (MIC) of peptoids against fungal pathogens C. albicans was determined following CLSI guidelines (CLSI. Reference method for broth dilution antifungal susceptibility testing of yeasts; approved standard-third edition; CLSI document M27 A3. Clinical and Laboratory Standards Institute, 2008). Colonies were transferred from a streaked YPD plate to 0.85% saline to reach an OD530 between 0.15 and 0.25. This inoculant was diluted 1:100 into RPMI-MOPS and then further diluted 1:20 into RPMI-MOPS. 200 μL of inoculant was seeded into each well of a 96 well black-walled plate. Plates were incubated overnight at 37° C. Media was gently removed and gently washed three times with PBS. RPMI-MOPS (198 μL) were added to each well. 2-fold serial dilutions of 100× peptoid solutions were prepared in water and 2 μL of peptoid were added to each well in triplicate then incubated at 37° C. for 24 hours. PRESTOBLUE (20 μL) was added to each well and incubated at 37° C. for one hour before measuring fluorescence on a SPECTRAMAX M5 plate reader (Ex. 555 nm; Em. 585 nm).

[2] = test system: C. tropicalis; assay type: cell-based, Candida tropicalis
[3] = test system: C. glabrata; assay type: cell-based, Candida glabrata
[4] = in vitro; assay type: cell-based, human
Method: (§1) The mammalian cell lines that were tested (HepG2, 3T3, and HaCat) were incubated with RMG9-11 for 72 hours and cell viability was determined via mitochondrial activity using an MTT reduction assay where viable cells reduce MTT to formazan. Toxicity is reported as the concentration of the peptoid that results in a 50% reduction in viable cells, termed toxicity dose 50% or TD50. […] SR is defined as the TD50 divided by MIC and provides a measure of the therapeutic window for a compound. Typically for most lead compounds that would continue through development and optimization, a SR of 10 is preferred while an SR of 100 is more desirable for a compound moving into preclinical animal model evaluation.
(§2) Hepatocellular carcinoma (HepG2), mouse fibroblast (3T3), and human keratinocyte (HaCat) cells were cultured in Dulbeco modified eagle media (DMEM) containing 10% fetal bovine serum (FBS) and 1% penicillin, streptomycin, and glutamine (PSG) at 37° C. and 5% CO2. Cells were collected and adjusted to […] to 4×10^5 cells/mL in phenol-red free DMEM and plated (100 μL) 96 well plates. 2-fold serial dilutions of 10× peptoid (11.1 μL) were added to each well in triplicate. Water (vehicle) was used as a negative control. Plates were incubated at 37° C. in 5% CO2 for 72 hours. Thiazolyl blue tetrazolium bromide (MTT) was added to each well (5 mg/mL; 20 μL) and incubated for 3 hours. Media was removed, DMSO (100 μL) was added, and plates were incubated at 37° C. for 10 minutes. Plates were read on a SPECTRAMAX M5 plate reader (Abs. 570 nm). The concentration of compound resulting in a 50% reduction in growth compared to control (toxicity dose 50%; TD50) was determined using GRAFIT. This procedure was repeated three times on separate days.

[5] = test system: HepG2 liver cells; test: in vitro; assay type: cell-based
Method: as §1, §2

[6] = test system: human keratinocyte (HaCat) cells; test: in vitro; assay type: cell-based
Method: as §1, §2

[7] = test system: mouse fibroblast (3T3) cells; test: in vitro; assay type: cell-based
Method: as §1, §2

[8] = test system: C. albicans; assay type: cell-based, Candida albicans
Excerpt: One of the most serious crises facing both new and existing antimicrobial compounds is the rapid development of resistance by pathogens to that compound, rendering it useless. This has been an issue observed with all major commercially available antimicrobial drugs and is an increasingly prevalent issue with antifungal drugs (Clatworthy et al., Nat. Chem. Biol. 3, 541-548 (2007); Wiederhold et al., Infect. Drug Resist. 10, 249-259 (2017)). The ability of C. albicans to gain resistance against RMG9-11 was evaluated using two techniques; serial and single passage. Ching et al. described a method for single passage assessment of gain of resistance, which was used here with RMG9-11 (Ching et al., Sci. Rep. 10, 8754 (2020)). Briefly, a single colony of C. albicans was incubated overnight in RPMI-MOPS. Fungal cultures were then incubated for either 24 or 48 hours with concentrations of RMG9-11 ranging from 0 to 80% MIC. […] To further solidify this finding, C. albicans were introduced to increasing concentrations of RMG9-11 through a serial passage gain of resistance assay, as described by Samuelsen et al. (Samuelsen et al., FEBS Lett. 579, 3421-3426 (2005)). […] One main difference between serial and single passage assays is in the inoculation method from one passage to the next. The single passage relies on one individual colony while the serial passage focuses on a set concentration of fungi (cells/mL). At the end of serial passage, C. albicans that had been exposed to gradually increasing concentrations of RMG9-11 were used to prepare a traditional MIC assay. In theory, if fungi had evolved resistance during serial passage with sub-MIC antifungal agent, the MIC of RMG9-11 against these fungi should increase. […] To our knowledge, this is the first evaluation of the ability of a microbe to gain resistance to a peptoid, though it has long been hypothesized that gaining resistance to peptoids is unlikely.
A second gain of resistance through single passage was done for RMG9-11 against C. albicans following previously published methods as a confirmation of serial passage results (Ching et al., Sci. Rep. 10, 8754 (2020)). A single C. albicans colony was inoculated into RPMI-MOPS (pH 7; 5 mL) and incubated overnight (200 RPM; 37° C.). […] The following day, an MIC was performed with these cell solutions to evaluate gain of resistance after 48 hours. This assay was performed with four separate streaked plates from frozen stocks for biological replicate.

[9] = test system: single donor human red blood cells (hRBC)

CCCCCCCCCCCCCNCC(=O)N(CCC)CC(=O)N(CC(=O)N(CCCCN)CC(=O)N(CC(=O)N(CC(=O)N(CCCN)CC(N)=O)Cc1ccccc1)Cc1ccco1)C(C)c1ccccc1 (centres unmarked) [RMG9-11] (H-[N(tridecyl)Gly][NPrGly][X1][Nlys][NFurfurylGly][Nphe][Gly(N(CH2)3NH2)]-NH2)
increase of biofilm MIC compared to MIC ([1]; BMIC vs planktonic C. albicans MIC): 16 fold | MIC C. albicans biofilm (BMIC) ([1]; established biofilm, 24 h): 100 µg/mL (≈ 95.8 µM) | MIC C. tropicalis [2]: 3.13 µg/mL (≈ 3 µM) | MIC C. glabrata [3]: 6.25 µg/mL (≈ 5.99 µM) | CC50 at 72 h ([4]; human, HaCat human keratinocyte cells): 53 ± 5 µg/mL (≈ 50.8 µM) | CC50 at 72 h ([4]; human, HepG2 hepatocellular carcinoma cells): 114 ± 5 µg/mL (≈ 109 µM) | CC50 at 72 h ([4]; mouse, 3T3 mouse fibroblast cells): 39 ± 2 µg/mL (≈ 37.4 µM) | toxicity at the MIC against C. albicans, HepG2 [5]: no toxicity | TD50 HaCat [6]: 53 µg/mL | toxicity at the MIC, HaCat [6]: minimal | TD50 3T3 [7]: 39 µg/mL | toxicity at the MIC, 3T3 [7]: minimal | Single Passage 24 h MIC ([8]; C. albicans pre-exposed 24 h to 0% MIC RMG9-11): 6.25 µg/mL | Single Passage 24 h MIC ([8]; pre-exposed 24 h to 10% MIC): 6.25 µg/mL | Single Passage 24 h MIC ([8]; pre-exposed 24 h to 20% MIC): 6.25 µg/mL | Single Passage 24 h MIC ([8]; pre-exposed 24 h to 40% MIC): 6.25 µg/mL | Single Passage 24 h MIC ([8]; pre-exposed 24 h to 60% MIC): 6.25 µg/mL | Single Passage 24 h MIC ([8]; pre-exposed 24 h to 80% MIC): 6.25 µg/mL | Single Passage 48 h MIC ([8]; pre-exposed 48 h to 0% MIC): 6.25 µg/mL | Single Passage 48 h MIC ([8]; pre-exposed 48 h to 10% MIC): 6.25 µg/mL | Single Passage 48 h MIC ([8]; pre-exposed 48 h to 20% MIC): 6.25 µg/mL | Single Passage 48 h MIC ([8]; pre-exposed 48 h to 40% MIC): 6.25 µg/mL | Single Passage 48 h MIC ([8]; pre-exposed 48 h to 60% MIC): 6.25 µg/mL | Single Passage 48 h MIC ([8]; pre-exposed 48 h to 80% MIC): 6.25 µg/mL | ability of C. albicans to develop resistance ([8]; single passage, in words): unable to develop resistance | HC10 hRBC [9]: 29 µg/mL
